These results are taken from ChEMBL document CHEMBL4483862, “Open-source discovery of chemical leads for next-generation chemoprotective antimalarials” (2018).

The test system of this test is Plasmodium berghei. Put plainly: Luciferase/luciferin-expressing antifolate-resistant parasites were used to infect a culture of HepG2 cells that were pre-incubated with compounds. Infected hepatocytes emit light due to the luciferase reaction. Assay results are presented as the percent inhibition of light emission compared to control. […]. The test is classed as functional. As to conditions: sporozoite; for IC50: read-out: LUCIFERASE INFECTION ASSAY - IC50; for IC90: read-out: LUCIFERASE INFECTION ASSAY - IC90.

Usually IC50 stands for the concentration at which inhibition is half-maximal. The term IC90 denotes the concentration at which the effect reaches the 90% level. For the molecule `CCOc1ccc(S(=O)(=O)Nc2cccc(C(=O)N3CCN(c4ccccn4)CC3)c2)cc1`, the IC50 was above 10 µM and the IC90 is above 10 µM.

Take `CC(=O)NC(Cc1c[nH]c2ccccc12)C(=O)NNC(=O)c1ccccc1O` (stereo not drawn): the IC50 is above 10 µM and the concentration for an effect of 90% (IC90) was above 10 µM.

On to `CC(C)N(Cc1nc(=O)c2ccccc2[nH]1)C(=O)COc1ccccc1Cc1ccccc1`, for which the IC50 was above 10 µM and the IC90 is above 10 µM.

For the molecule `O=C(CN1CCN(C(=O)C2COc3ccccc3O2)CC1)Nc1ccccc1-c1ccccc1` (stereo not drawn), the half-inhibitory concentration (IC50) is above 10 µM and the IC90 is above 10 µM.

Turning to `Fc1ccc(-c2csc3ncnc(Sc4nnc(NC5CC5)s4)c23)cc1`, the IC50 is above 10 µM and the IC90 is above 10 µM.

With `O=C(c1ccc(S(=O)(=O)NCc2ccco2)cc1)N1CCc2sccc2C1c1cccs1` (stereo not drawn), the half-maximal inhibitory concentration (IC50) is above 10 µM and the IC90 was above 10 µM.

Turning to `NS(=O)(=O)c1ccc(CCNC(=O)COC(=O)c2ccc3[nH]c4c(c3c2)CCCC4)cc1`, the 50% inhibitory concentration (IC50) is above 10 µM and the concentration for an effect of 90% (IC90) was above 10 µM.

In the case of `Cc1cc(/C=C2\SC(N3CCOCC3)=NC2=O)c(C)n1-c1cccc(C(F)(F)F)c1`, the 50% inhibitory concentration (IC50) was above 10 µM and the IC90 was above 10 µM.

On to `COc1cc2c(cc1OC)C(c1ccccc1)N(C(=O)/C=C/c1ccsc1)CC2` (stereo not drawn), for which the 50% inhibitory concentration (IC50) was above 10 µM and the IC90 is above 10 µM.

For the molecule `COCCN(Cc1nnc(-c2cccs2)o1)C(=O)c1cc(C2CC2)nc2c1cnn2C(C)C`, the IC50 is above 10 µM and the 90% effect concentration (IC90) was above 10 µM.

In the case of `CCOC(=O)c1c(CN2C(=O)NC3(CCCc4sccc43)C2=O)nc2ccccc2c1C` (stereo not drawn), the half-maximal inhibitory concentration (IC50) was above 10 µM and the IC90 was above 10 µM.

As for `Cc1ccc(-n2c(SCC(=O)c3ccc4c(c3)OCO4)nnc2N2CCCC2)cc1`, the IC50 is above 10 µM and the IC90 was above 10 µM.

In the case of `O=C(c1nn(-c2ccccc2)c(=O)c2ccccc12)N1CCN(C2CCS(=O)(=O)C2)CC1` (stereo not drawn), the IC50 was above 10 µM and the 90% effect concentration (IC90) is above 10 µM.

As to `Cc1noc(C)c1COc1ccc(C(=O)NNc2c(Cl)cc(Cl)cc2Cl)cc1`, the concentration for half-maximal inhibition (IC50) was above 10 µM and the concentration for an effect of 90% (IC90) was above 10 µM.

Turning to `CCn1c(=S)[nH]c2cc(C(=O)N3CCN(C(c4ccc(F)cc4)c4ccc(F)cc4)CC3)ccc21`, the IC50 is above 10 µM and the 90% effect concentration (IC90) was above 10 µM.

Consider `Cc1nc(SCC(=O)N2c3ccccc3Sc3ccccc32)n(CC(C)C)c1C`, for which the half-maximal inhibitory concentration (IC50) was above 10 µM and the IC90 was above 10 µM.

Take `CCN(CC)C(=O)COC(=O)c1ccc2c(c1)C(=O)N(CCC(C)C)C2=O`: the IC50 was above 10 µM and the IC90 was above 10 µM.

Take `CC(=O)N1CCN(S(=O)(=O)c2cccc(C(=O)OCC(=O)c3ccc4c(c3)-c3ccccc3C4)c2)CC1`: the concentration for half-maximal inhibition (IC50) is above 10 µM and the IC90 is above 10 µM.

Regarding `COc1ccc(NS(=O)(=O)c2ccc3oc(SC(C)C(=O)N4CCNC4=O)nc3c2)cc1` (stereo not drawn), the 50% inhibitory concentration (IC50) was above 10 µM and the 90% effect concentration (IC90) is above 10 µM.

As for `CCOCCCn1c(SCC(=O)Nc2scc(C3CC3)c2C(=O)OCC)nnc1-c1ccc(Cl)cc1`, the IC50 is above 10 µM and the IC90 is above 10 µM.

In the case of `Cc1ccc(-c2nnc(SCC(=O)Nc3ccc(S(=O)(=O)N4CCCC4)cc3)[nH]2)cc1`, the IC50 was above 10 µM and the IC90 is above 10 µM.

Consider `O=C(OCC(=O)N1CCN(c2ccccc2)CC1)c1cccnc1Nc1cccc(C(F)(F)F)c1`, for which the IC50 is above 10 µM and the IC90 was above 10 µM.

Consider `Cc1nc2ccccc2c(=O)n1-c1ccc(C(=O)NCCc2ccc3c(c2)OCCO3)cc1`, for which the IC50 was above 10 µM and the IC90 was above 10 µM.

Regarding `CN(C)c1ccc(S(=O)(=O)N2CCCCC2)cc1NC(=S)NCc1ccc2c(c1)OCO2`, the half-inhibitory concentration (IC50) is above 10 µM and the IC90 was above 10 µM.

For the molecule `Cc1ccc(N(Cc2ccccc2)C(=O)C2CCN(S(=O)(=O)c3c(Cl)cccc3Cl)CC2)cc1`, the IC50 was above 10 µM and the IC90 was above 10 µM.

As to `COCCn1c(SC(C)C(=O)c2ccc(Br)cc2)nnc1-c1cccc(C)c1` (stereo not drawn), the IC50 is above 10 µM and the 90% effect concentration (IC90) was above 10 µM.

In the case of `Cc1nn(Cc2ccccc2Cl)c(C)c1C(=O)OCC(=O)N1CCN(c2ccccc2)CC1`, the half-inhibitory concentration (IC50) is above 10 µM and the concentration for an effect of 90% (IC90) was above 10 µM.

On to `Cc1cc(/C=C(\C#N)c2nc3ccccc3n2C)c(C)n1-c1ccc(Cl)c(C(F)(F)F)c1`, for which the IC50 is above 10 µM and the concentration for an effect of 90% (IC90) was above 10 µM.

Regarding `COc1cc(C(=O)Nc2ccc(-c3cn4ccsc4n3)cc2)ccc1OCC(=O)N1CCOCC1`, the IC50 is above 10 µM and the IC90 was above 10 µM.

`O=C(CN1CCN(Cc2nc3ccccc3s2)CC1)NN1C(=O)NC2(CCCCC2)C1=O`: the IC50 was above 10 µM and the 90% effect concentration (IC90) was above 10 µM.

For the molecule `CCc1ccc(-c2csc(NC(=O)CCc3c(C)nc4nc(SC)nn4c3C)n2)cc1`, the 50% inhibitory concentration (IC50) is above 10 µM and the concentration for an effect of 90% (IC90) is above 10 µM.

On to `Cc1cc(C)c2c(N)c(C(=O)NNC(=O)COc3ccc4c5c(c(=O)oc4c3)CCC5)sc2n1`, for which the IC50 is above 10 µM and the IC90 was above 10 µM.

Consider `CNc1snc(C)c1C(=O)OCc1ccc([N+](=O)[O-])cc1`, for which the IC50 was above 10 µM and the 90% effect concentration (IC90) was above 10 µM.

With `O=C(Cn1cnc2cc(N3CCOCC3)c([N+](=O)[O-])cc2c1=O)c1ccc(C2CCCCC2)cc1`, the concentration for half-maximal inhibition (IC50) was above 10 µM and the concentration for an effect of 90% (IC90) was above 10 µM.

`O=C(CSc1nnc(N2CCCC2)n1-c1ccccc1Cl)N1CCC(c2ccccc2)=N1`: the concentration for half-maximal inhibition (IC50) was above 10 µM and the 90% effect concentration (IC90) was above 10 µM.

`COc1ccc(OC)c2c1CN(c1cnn(-c3nc4ccccc4[nH]3)c(=O)c1Cl)CC2O` (stereo not drawn): the half-inhibitory concentration (IC50) was above 10 µM and the 90% effect concentration (IC90) is above 10 µM.

In the case of `CCn1c(C)nc2cc(C(=O)NNC(=O)/C=C/c3cccc(C(F)(F)F)c3)ccc21`, the IC50 is above 10 µM and the concentration for an effect of 90% (IC90) is above 10 µM.

For `COc1cc(C(=O)NC(c2ccccc2)c2ccc(C)cc2)ccc1OCC(=O)N1CCOCC1` (stereo not drawn), the 50% inhibitory concentration (IC50) was above 10 µM and the concentration for an effect of 90% (IC90) was above 10 µM.

Regarding `COc1cc(OC)c2c(-c3ccccc3)cc(SCC(=O)N(C)C3CCS(=O)(=O)C3)nc2c1` (stereo not drawn), the IC50 is above 10 µM and the concentration for an effect of 90% (IC90) was above 10 µM.

In the case of `COc1cc(OC)c(N2CC(C(=O)NC(C)c3ccc(F)c(F)c3)CC2=O)cc1Cl` (stereo not drawn), the IC50 is above 10 µM and the IC90 is above 10 µM.

Take `COc1ccccc1-n1cnnc1SCC(=O)NC(C)c1ccc(CC(C)C)cc1` (stereo not drawn): the IC50 is above 10 µM and the concentration for an effect of 90% (IC90) was above 10 µM.

As to `CC(C(=O)Nc1cccc(C#N)c1)N1CCN(c2ncccn2)CC1` (stereo not drawn), the IC50 was above 10 µM and the 90% effect concentration (IC90) is above 10 µM.

Take `NC(=O)c1ccsc1NC(=O)COC(=O)c1ccc2c(c1Cl)C(=O)c1ccccc1C2=O`: the IC50 is above 10 µM and the IC90 was above 10 µM.

Take `O=C(C1CN(C(=O)CCCc2c[nH]c3ccccc23)c2ccccc2O1)N1CCCCC1` (stereo not drawn): the 50% inhibitory concentration (IC50) is above 10 µM and the IC90 is above 10 µM.

Consider `CSCCC(NCc1cc(C)n(-c2ccnn2C(C)C)c1C)c1nc2ccccc2[nH]1` (stereo not drawn), for which the concentration for half-maximal inhibition (IC50) is above 10 µM and the IC90 was above 10 µM.

For the molecule `Cn1nc(CC(=O)N2CC(C(=O)N3CCCCC3)Oc3ccccc32)c2ccccc2c1=O` (stereo not drawn), the IC50 was above 10 µM and the IC90 is above 10 µM.

Take `Cc1cc(C(C)(C)C)cc(C)c1COC(=O)/C(=C/c1ccccc1)n1nnnc1C`: the half-inhibitory concentration (IC50) was above 10 µM and the IC90 is above 10 µM.

On to `Cc1ccc(Cn2nc(C)c3cc(C(=O)N4CCN(c5ncccn5)CC4)sc32)cc1`, for which the IC50 is above 10 µM and the 90% effect concentration (IC90) was above 10 µM.

On to `O=C(COC(=O)c1cc(-c2ccc(OC(F)F)cc2)nc2ccccc12)Nc1nnc(-c2ccccc2)o1`, for which the IC50 is above 10 µM and the IC90 is above 10 µM.

For the molecule `CCn1c(SCc2csc(N(C(C)=O)c3c(C)cc(C)cc3Cl)n2)nnc1C1CC1`, the half-inhibitory concentration (IC50) is above 10 µM and the IC90 was above 10 µM.

For `COc1ccc2cc(C(C)C(=O)N3CCN(S(=O)(=O)/C=C/c4ccccc4)CC3)ccc2c1` (stereo not drawn), the IC50 was above 10 µM and the concentration for an effect of 90% (IC90) is above 10 µM.

With `Cc1cc(C(=O)CSc2nnc3n2CCCCC3)c(C)n1Cc1ccc2c(c1)OCO2`, the IC50 was above 10 µM and the IC90 was above 10 µM.

Take `CN(Cc1nc2ccccc2s1)C(=O)CSc1nnc(N2CCCCC2)n1-c1ccccc1`: the IC50 was above 10 µM and the IC90 is above 10 µM.

Regarding `CCN(CC)S(=O)(=O)c1ccc(C)c(NC(=O)CN(Cc2c(F)cccc2Cl)C2CC2)c1`, the concentration for half-maximal inhibition (IC50) was above 10 µM and the IC90 is above 10 µM.

As for `O=C(NC(c1ccc(F)cc1)c1cccs1)c1cc2ccccc2o1` (stereo not drawn), the IC50 was above 10 µM and the IC90 is above 10 µM.

For `CCOC(=O)/C=C1\SCC(=O)N1CCOC(=O)c1ccccc1`, the IC50 was above 10 µM and the 90% effect concentration (IC90) is above 10 µM.

In the case of `CC(=O)N/C(=C\c1ccccc1)C(=O)OCc1ncc(-c2ccccc2)o1`, the IC50 was above 10 µM and the concentration for an effect of 90% (IC90) was above 10 µM.

Turning to `O=C(CN1CCN(C(=O)c2ccccc2COc2ccccc2)CC1)Nc1ccccc1Cl`, the 50% inhibitory concentration (IC50) was above 10 µM and the IC90 was above 10 µM.

On to `COc1cc(/C=c2\s/c(=C(/C#N)C(=O)Nc3cccc(S(=O)(=O)N4CCCCC4)c3)n(CCc3ccccc3)c2=O)ccc1OC(F)F`, for which the 50% inhibitory concentration (IC50) is above 10 µM and the IC90 is above 10 µM.

Regarding `CC1C(=O)Nc2ccc(-c3csc(-c4ccc(NC(=O)c5ccco5)cc4)n3)cc21` (stereo not drawn), the half-inhibitory concentration (IC50) was above 10 µM and the IC90 was above 10 µM.

As for `CCCN(CC(=O)N1N=C(c2ccc(C)cc2)CC1c1ccco1)Cc1nnc(-c2ccco2)o1` (stereo not drawn), the IC50 was above 10 µM and the concentration for an effect of 90% (IC90) is above 10 µM.

In the case of `Nc1c(C(=O)CN2CCN(C(c3ccc(F)cc3)c3ccc(F)cc3)CC2)c(=O)[nH]c(=O)n1Cc1ccccc1`, the 50% inhibitory concentration (IC50) was above 10 µM and the concentration for an effect of 90% (IC90) is above 10 µM.

Regarding `COc1ccc(-c2csc3ncnc(NC(C)c4ccc(Cl)cc4Cl)c23)cc1` (stereo not drawn), the half-inhibitory concentration (IC50) is above 10 µM and the concentration for an effect of 90% (IC90) is above 10 µM.

In the case of `CCCCN(C(=O)CSc1nnc(-c2ccc(OC)cc2)n1C(C)C)c1c(N)n(CCCC)c(=O)[nH]c1=O`, the half-maximal inhibitory concentration (IC50) is above 10 µM and the concentration for an effect of 90% (IC90) is above 10 µM.
